Where “and” joins values, the source holds several entries; their conditions need not be identical. Equal values may be shown once.
Legend:
Calu-3 cells = assay: Cell viability assay (MTT) in Calu-3 cells; settings: replicates; for %cell viability: Calu-3; for cell viability: Calu-3 cells
Protocol: (§1) Subsequently, the cell viability was assessed using MTT dyes (Invitrogen) in duplicate (Supplementary file 1). The procedure was described elsewhere. The viability of drug-treated cells was expressed as percent cell viability relative to 0.5% DMSO-treated cells.

[1] = Cell viability assay (MTT) in Calu-3 cells; settings: human, Calu-3 cells
Protocol: as §1

[2] = Cell viability assay (MTT) in Vero E6 cells; settings: African green monkey, Vero E6 cells
Protocol: as §1

Vero E6 cells = assay: Cell viability assay (MTT) in Vero E6 cells; settings: replicates; for %cell viability: Vero E6; for cell viability: Vero E6 cells
Protocol: as §1

SARS-CoV-2 [3] = assay: Antiviral activity against SARS-CoV-2 in Vero E6 cells, plaque assay; format: cell-based
SARS-CoV-2 [4] = assay: microbe, parasite or virus in culture; format: cell-based; settings: for % inhibition: Calu-3 cells
SARS-CoV-2 [5] = assay: Antiviral activity against SARS-CoV-2 in Vero E6 cells, one-step qRT-PCR (single drugs, two-drug combinations, synergy analysis); settings: for %inhibition (qRT-PCR) / % inhibition: replicates; for % inhibition: Vero E6 cells

## O=C(Nc1ccc([N+](=O)[O-])cc1Cl)c1cc(Cl)ccc1O [Niclosamide, niclosamide]
Calu-3 cells; niclosamide 0.019531 uM
  %cell viability: 102.92%
Calu-3 cells; niclosamide 0.039063 uM
  %cell viability: 104.17%
Calu-3 cells; niclosamide 0.078125 uM
  %cell viability: 109.86%
Calu-3 cells; niclosamide 0.15625 uM
  %cell viability: 107.64%
Calu-3 cells; niclosamide 0.3125 uM
  %cell viability: 99.17%
Calu-3 cells; niclosamide 0.625 uM
  %cell viability: 104.86%
Calu-3 cells; niclosamide 1.25 uM
  %cell viability: 97.36%
Calu-3 cells; niclosamide 2.5 uM
  %cell viability: 82.64%
Calu-3 cells; niclosamide 5 uM
  %cell viability: 54.44%
Calu-3 cells; Niclosamide 0.05 uM alone
  cell viability: 96.54 and 92.66
Calu-3 cells; Niclosamide 0.10 uM alone
  cell viability: 89.85 and 85.75
Calu-3 cells; Niclosamide 0.20 uM alone
  cell viability: 98.27 and 86.39
Calu-3 cells; Niclosamide 0.40 uM alone
  cell viability: 103.02 and 98.49
[1]
  CC50 at 48 h: 5620 nM
[1]; %cell viability, Calu-3, niclosamide 0.019531 uM, replicates
  viability at 48 h, 0.019531 uM: 92.2%
[1]; %cell viability, Calu-3, niclosamide 0.039063 uM, replicates
  viability at 48 h, 0.039063 uM: 102%
[1]; %cell viability, Calu-3, niclosamide 0.078125 uM, replicates
  viability at 48 h, 0.078125 uM: 109%
[1]; %cell viability, Calu-3, niclosamide 0.15625 uM, replicates
  viability at 48 h, 0.15625 uM: 100%
[1]; %cell viability, Calu-3, niclosamide 0.3125 uM, replicates
  viability at 48 h, 0.3125 uM: 100%
[1]; %cell viability, Calu-3, niclosamide 0.625 uM, replicates
  viability at 48 h, 0.625 uM: 107%
[1]; %cell viability, Calu-3, niclosamide 1.25 uM, replicates
  viability at 48 h, 1.25 uM: 96.5%
[1]; %cell viability, Calu-3, niclosamide 2.5 uM, replicates
  viability at 48 h, 2.5 uM: 85%
[1]; %cell viability, Calu-3, niclosamide 5 uM, replicates
  viability at 48 h, 5 uM: 59.4%
[2]
  CC50 at 48 h: 290 nM
[2]; %cell viability, Vero E6, niclosamide 0.00390625 uM, replicates
  viability at 48 h, 0.00390625 uM: 98.6%
[2]; %cell viability, Vero E6, niclosamide 0.0078125 uM, replicates
  viability at 48 h, 0.0078125 uM: 97.7%
[2]; %cell viability, Vero E6, niclosamide 0.015625 uM, replicates
  viability at 48 h, 0.015625 uM: 91.7%
[2]; %cell viability, Vero E6, niclosamide 0.03125 uM, replicates
  viability at 48 h, 0.03125 uM: 92.7%
[2]; %cell viability, Vero E6, niclosamide 0.0625 uM, replicates
  viability at 48 h, 0.0625 uM: 95%
[2]; %cell viability, Vero E6, niclosamide 0.125 uM, replicates
  viability at 48 h, 0.125 uM: 91.3%
[2]; %cell viability, Vero E6, niclosamide 0.25 uM, replicates
  viability at 48 h, 0.25 uM: 59.2%
[2]; %cell viability, Vero E6, niclosamide 0.5 uM, replicates
  viability at 48 h, 0.5 uM: 20.1%
Vero E6 cells; niclosamide 0.00390625 uM
  %cell viability: 92.84%
Vero E6 cells; niclosamide 0.0078125 uM
  %cell viability: 91.90%
Vero E6 cells; niclosamide 0.015625 uM
  %cell viability: 92.98%
Vero E6 cells; niclosamide 0.03125 uM
  %cell viability: 90.36%
Vero E6 cells; niclosamide 0.0625 uM
  %cell viability: 90.95%
Vero E6 cells; niclosamide 0.125 uM
  %cell viability: 88.11%
Vero E6 cells; niclosamide 0.25 uM
  %cell viability: 54.41%
Vero E6 cells; niclosamide 0.5 uM
  %cell viability: 25.91%
Vero E6 cells; Niclosamide 0.01125 uM alone
  cell viability: 91.66 and 92.98
Vero E6 cells; Niclosamide 0.0225 uM alone
  cell viability: 92.73 and 90.36
Vero E6 cells; Niclosamide 0.045 uM alone
  cell viability: 94.97 and 90.95
Vero E6 cells; Niclosamide 0.09 uM alone
  cell viability: 89.48 and 90.50
SARS-CoV-2 [3]; Severe acute respiratory syndrome coronavirus 2, Vero C1008, Vero E6, niclosamide 0.00390625 uM, replicates
  inhibition at 0.00390625 µM: 11.5%
SARS-CoV-2 [3]; Severe acute respiratory syndrome coronavirus 2, Vero C1008, Vero E6, niclosamide 0.015625 uM, replicates
  inhibition at 0.015625 µM: 23.2%
SARS-CoV-2 [3]; Severe acute respiratory syndrome coronavirus 2, Vero C1008, Vero E6, niclosamide 0.03125 uM, replicates
  inhibition at 0.03125 µM: 23.7%
SARS-CoV-2 [3]; Severe acute respiratory syndrome coronavirus 2, Vero C1008, Vero E6, niclosamide 0.0625 uM, replicates
  inhibition at 0.0625 µM: 40.1%
SARS-CoV-2 [3]; Severe acute respiratory syndrome coronavirus 2, Vero C1008, Vero E6, niclosamide 0.125 uM, replicates
  inhibition at 0.125 µM: 84.6%
SARS-CoV-2 [3]; Severe acute respiratory syndrome coronavirus 2, Vero C1008, Vero E6, MOI 0.01, 48 hours, single drug
  IC50: 0.049 µM
SARS-CoV-2 [3]; Vero E6, niclosamide 0.00390625 uM, replicates
  %inhibition (plaque assay): 9.45% and 9.72%
SARS-CoV-2 [3]; Vero E6, niclosamide 0.0078125 uM, replicates
  %inhibition (plaque assay): 5.39% and 21.29% and 14.01%
SARS-CoV-2 [3]; Vero E6, niclosamide 0.015625 uM, replicates
  %inhibition (plaque assay): 25.26% and 23.12%
SARS-CoV-2 [3]; Vero E6, niclosamide 0.03125 uM, replicates
  %inhibition (plaque assay): 28.44% and 31.03%
SARS-CoV-2 [3]; Vero E6, niclosamide 0.0625 uM, replicates
  %inhibition (plaque assay): 40.15% and 40.02%
SARS-CoV-2 [3]; Vero E6, niclosamide 0.125 uM, replicates
  %inhibition (plaque assay): 97.12% and 94.56%
SARS-CoV-2 [4]; Calu-3
  SI: 28.1
SARS-CoV-2 [4]; Calu-3, niclosamide 0.039063 uM, replicates
  %inhibition (plaque assay): 23.81% (2×) and 35.24%
SARS-CoV-2 [4]; Calu-3, niclosamide 0.078125 uM, replicates
  %inhibition (plaque assay): 35.24% and 39.05%
SARS-CoV-2 [4]; Calu-3, niclosamide 0.15625 uM, replicates
  %inhibition (plaque assay): 35.24% and 42.86% and 20.00%
SARS-CoV-2 [4]; Calu-3, niclosamide 0.3125 uM, replicates
  %inhibition (plaque assay): 69.52% and 61.90%
SARS-CoV-2 [4]; Calu-3, niclosamide 0.625 uM, replicates
  %inhibition (plaque assay): 61.90%
SARS-CoV-2 [4]; Calu-3, niclosamide 1.25 uM, replicates
  %inhibition (plaque assay): 69.52% and 80.95%
SARS-CoV-2 [4]; Niclosamide 0.05 uM alone, replicates
  % inhibition: 33.33% and 13.33% (2×)
SARS-CoV-2 [4]; Niclosamide 0.10 uM alone, replicates
  % inhibition: 40.00%
SARS-CoV-2 [4]; Niclosamide 0.40 uM alone, replicates
  % inhibition: 70.00%
SARS-CoV-2 [4]; Severe acute respiratory syndrome coronavirus 2, Calu-3, Calu-3, niclosamide 0.039063 uM, replicates, read-out: %inhibition (plaque assay)
  inhibition at 0.039063 µM: 31.4%
SARS-CoV-2 [4]; Severe acute respiratory syndrome coronavirus 2, Calu-3, Calu-3, niclosamide 0.078125 uM, replicates, read-out: %inhibition (plaque assay)
  inhibition at 0.078125 µM: 31.4%
SARS-CoV-2 [4]; Severe acute respiratory syndrome coronavirus 2, Calu-3, Calu-3, niclosamide 0.1 uM alone
  inhibition at 0.1 µM: 46.7 ± 6.67%
SARS-CoV-2 [4]; Severe acute respiratory syndrome coronavirus 2, Calu-3, Calu-3, niclosamide 0.2 uM alone
  inhibition at 0.2 µM: 53.3 ± 6.67%
SARS-CoV-2 [4]; Severe acute respiratory syndrome coronavirus 2, Calu-3, Calu-3, niclosamide 0.3125 uM, replicates, read-out: %inhibition (plaque assay)
  inhibition at 0.3125 µM: 73.3%
SARS-CoV-2 [4]; Severe acute respiratory syndrome coronavirus 2, Calu-3, Calu-3, niclosamide 0.4 uM alone
  inhibition at 0.4 µM: 61.1 ± 8.39%
SARS-CoV-2 [4]; Severe acute respiratory syndrome coronavirus 2, Calu-3, Calu-3, niclosamide 0.625 uM, replicates, read-out: %inhibition (plaque assay)
  inhibition at 0.625 µM: 65.7%
SARS-CoV-2 [4]; Severe acute respiratory syndrome coronavirus 2, Calu-3, Calu-3, niclosamide 1.25 uM, replicates, read-out: %inhibition (plaque assay)
  inhibition at 1.25 µM: 73.3%
SARS-CoV-2 [4]; Severe acute respiratory syndrome coronavirus 2, Calu-3, Calu-3 cells, Niclosamide 0.10 uM alone, replicates
  inhibition at 0.1 µM: 53.3%
SARS-CoV-2 [4]; Severe acute respiratory syndrome coronavirus 2, Calu-3, Calu-3 cells, Niclosamide 0.20 uM alone, replicates
  inhibition at 0.2 µM: 53.3%
SARS-CoV-2 [4]; Severe acute respiratory syndrome coronavirus 2, Calu-3, Calu-3 cells, Niclosamide 0.40 uM alone, replicates
  inhibition at 0.4 µM: 60%
SARS-CoV-2 [4]; Severe acute respiratory syndrome coronavirus 2, Calu-3, 500 TCID50, plaque assay, single drug
  IC50: 200 nM
SARS-CoV-2 [5]; Vero E6, niclosamide 0.00390625 uM
  %inhibition (qRT-PCR): 21.23% and 16.04% and 7.08%
SARS-CoV-2 [5]; Vero E6, niclosamide 0.0078125 uM
  %inhibition (qRT-PCR): 27.36% and 22.17% and 24.53%
SARS-CoV-2 [5]; Vero E6, niclosamide 0.015625 uM
  %inhibition (qRT-PCR): 29.25% and 17.92% and 28.30%
SARS-CoV-2 [5]; Vero E6, niclosamide 0.03125 uM
  %inhibition (qRT-PCR): 29.72% and 33.96% and 20.28%
SARS-CoV-2 [5]; Vero E6, niclosamide 0.0625 uM
  %inhibition (qRT-PCR): 52.36% and 36.32% and 72.26%
SARS-CoV-2 [5]; Vero E6, niclosamide 0.125 uM
  %inhibition (qRT-PCR): 95.05% and 87.83% and 93.92%
SARS-CoV-2 [5]; Niclosamide 0.01125 uM alone
  % inhibition: 6.05% and 30.26% and 19.89% and 3.41%
SARS-CoV-2 [5]; Niclosamide 0.0225 uM alone
  % inhibition: 31.70% and 37.15% and 50.00%
SARS-CoV-2 [5]; Niclosamide 0.045 uM alone
  % inhibition: 62.37% and 59.41% and 53.57%
SARS-CoV-2 [5]; Niclosamide 0.09 uM alone
  % inhibition: 75.85% and 79.12% and 97.76% and 97.32%
SARS-CoV-2 [5]; read-out: IC50 (μM) qRT-PCR, Vero E6, MOI 0.01, 48 hours, single drug
  IC50: 0.043 µM
